# How the values were obtained:
# [1] = tested on: panel of aerobic and anaerobic Gram-positive bacteria; test: organism not typed; assay type: cell-based
# C. beijerinckii B504 = test: MIC test, anaerobes; assay type: cell-based; conditions: Clostridium beijerinckii, B504, 24 h; read-out: Minimal Inhibition Concentration (MIC) C. beijerinckii B504
# Description: (§1) The resveratrol derivatives were serially diluted in cMHB (BD Difco) in 96-well microplates. Plates were then inoculated with the indicator bacteria at a final concentration of 5 × 10^5 CFU/mL and incubated at 37 °C for 20 h. In the case of the anaerobic bacteria (Clostridium and Clostridioides), the test was performed following the recommendation of CLSI for anaerobes[77] but using RCM medium instead of cMHB. The cultures were cultivated inside an anaerobic chamber at 37 °C for 24 h. All the tests were performed in triplicate.
# C. ihumii AP5 = test: MIC test, anaerobes; assay type: cell-based; conditions: 24 h; read-out: Minimal Inhibition Concentration (MIC) C. ihumii AP5
# Description: as §1
# C. botulinum CECT551 = test: microbe, parasite or virus in culture; assay type: cell-based; conditions: Clostridium botulinum, CECT551, 24 h, read-out: Minimal Inhibition Concentration (MIC) C. botulinum CECT551
# C. perfringens CECT376 = test: microbe, parasite or virus in culture; assay type: cell-based; conditions: Clostridium perfringens, CECT376, 24 h, read-out: Minimal Inhibition Concentration (MIC) C. perfringens CECT376
# C. tetani CECT4629 = test: microbe, parasite or virus in culture; assay type: cell-based; conditions: Clostridium tetani, CECT4629, 24 h, read-out: Minimal Inhibition Concentration (MIC) C. tetani CECT4629
# E. faecalis LMG08222 = test: microbe, parasite or virus in culture; assay type: cell-based, Enterococcus faecalis; conditions: Enterococcus faecalis, LMG08222, 20 h, read-out: Minimal Inhibition Concentration (MIC) E. faecalis LMG08222
# E. faecalis V583 = test: microbe, parasite or virus in culture; assay type: cell-based, Enterococcus faecalis; conditions: Enterococcus faecalis, V583, 20 h, read-out: Minimal Inhibition Concentration (MIC) E. faecalis V583
# B. cereus ATCC10987 = test: microbe, parasite or virus in culture; assay type: cell-based, Bacillus cereus; conditions: Bacillus cereus, ATCC10987, 20 h, read-out: Minimal Inhibition Concentration (MIC) B. cereus ATCC10987
# E. faecium LMG16003 [2] = test: microbe, parasite or virus in culture; assay type: cell-based; conditions: Enterococcus faecium, LMG16003, 20 h, read-out: Minimal Inhibition Concentration (MIC) E. faecium LMG16003
# S.aureus LMG8224 = test: microbe, parasite or virus in culture; assay type: cell-based, Staphylococcus aureus; conditions: Staphylococcus aureus, LMG8224, 20 h, read-out: Minimal Inhibition Concentration (MIC) S.aureus LMG8224
# C. difficile CECT531 = test: microbe, parasite or virus in culture; assay type: cell-based, Clostridioides difficile; conditions: Clostridioides difficile, CECT531, 24 h, read-out: Minimal Inhibition Concentration (MIC) C. difficile CECT531
# E. faecium LMG16003 [3] = test: Combined action with antibiotics (MIC reduction, checkerboard FICI); assay type: cell-based; conditions: for MIC of antibiotic in combination with RES: RES at 8 μM
# S. aureus LMG8224 = test: as above; assay type: cell-based, Staphylococcus aureus; conditions: for MIC of antibiotic in combination with RES: RES at 4 μM; for FICI, antibiotic with 15 / FICI, antibiotic with 17: fractional inhibitory concentration index, EUCAST, * means relevant FICI values
# [4] = fractional inhibitory concentration index, EUCAST, * means relevant FICI values
molecule,measurement,setting,value
CC[Si](CC)(CC)Oc1cc(/C=C/c2ccc(O)cc2)cc(O[Si](CC)(CC)CC)c1 [compound 21],antibacterial activity against the Gram-positive panel,[1],not active or displayed very low antibacterial activity
CC(C)[Si](Oc1ccc(/C=C/c2cc(O[Si](C(C)C)(C(C)C)C(C)C)cc(O[Si](C(C)C)(C(C)C)C(C)C)c2)cc1)(C(C)C)C(C)C [compound 22],antibacterial activity against the Gram-positive panel,[1],not active or displayed very low antibacterial activity
COc1cc(O)cc(/C=C/c2ccc(O[C@H]3O[C@@H](C(=O)O)[C@H](O)[C@@H](O)[C@@H]3O)cc2)c1 [compound 29],antibacterial activity against the Gram-positive panel,[1],did not show antibiotic activity
"CC(C)(C)[Si](C)(C)Oc1ccc(/C=C/c2cc(OS(=O)(=O)O)cc(OS(=O)(=O)O)c2)cc1 [compound 34, 3,5-Disulfate-4′-tert-butyldimethylsilyl resveratrol]",MIC,C. beijerinckii B504,32 µM
same,MIC,C. ihumii AP5,128 µM
same,MIC,C. botulinum CECT551,53.3 ± 10.6 µM
same,MIC,C. perfringens CECT376,128 µM
same,MIC,C. tetani CECT4629,5.3 ± 1.3 µM
"CC(C)[Si](Oc1ccc(/C=C/c2cc(O[Si](C(C)C)(C(C)C)C(C)C)cc(OS(=O)(=O)O)c2)cc1)(C(C)C)C(C)C [compound 36, 3-Sulfate-4′,5-diisopropylsilyl resveratrol]",MIC,E. faecalis LMG08222,128 µM
same,MIC,E. faecalis V583,128 µM
"CN[C@H](CC(C)C)C(=O)N[C@H]1C(=O)N[C@@H](CC(N)=O)C(=O)N[C@H]2C(=O)N[C@H]3C(=O)N[C@H](C(=O)N[C@H](C(=O)O)c4cc(O)cc(O)c4-c4cc3ccc4O)[C@H](O)c3ccc(c(Cl)c3)Oc3cc2cc(c3O[C@@H]2O[C@H](CO)[C@@H](O)[C@H](O)[C@H]2O[C@H]2C[C@](C)(N)[C@H](O)[C@H](C)O2)Oc2ccc(cc2Cl)[C@H]1O [vancomycin, reference compound]",MIC,B. cereus ATCC10987,6 ± 2 µM
same,MIC,E. faecalis V583,9.8 ± 2.7 µM
same,MIC,E. faecium LMG16003 [2],> 32 µM
same,MIC,S.aureus LMG8224,10.7 ± 2.7 µM
same,MIC,C. difficile CECT531,1.25 ± 0.75 µM
same,MIC,C. perfringens CECT376,0.18 ± 0.06 µM
Resveratrol-3-glucuronate [compound 8],antibacterial activity against the Gram-positive panel,[1],did not show antibiotic activity
bacitracin,MIC of antibiotic in combination with 15,E. faecium LMG16003 [3]; 15 at 4 μM,16 ± 0 µM
same,MIC of antibiotic in combination with 15,E. faecium LMG16003 [3]; 15 at 8 μM,0.3 ± 0.2 µM
same,MIC of antibiotic in combination with 17,E. faecium LMG16003 [3]; 17 at 2 μM,32 ± 0 µM
same,MIC of antibiotic in combination with 17,E. faecium LMG16003 [3]; 17 at 4 μM,16 ± 0 µM
same,MIC of antibiotic in combination with RES,E. faecium LMG16003 [3],>32 µM
same,MIC of antibiotic alone (Ab),E. faecium LMG16003 [3],>32 µM
same,"FICI, antibiotic with 15",E. faecium LMG16003 [3]; [4],0.27*
same,"FICI, antibiotic with 17",E. faecium LMG16003 [3]; [4],0.75*
same,MIC of antibiotic in combination with 15,S. aureus LMG8224; 15 at 2 μM,26.6 ± 3.7 µM
same,MIC of antibiotic in combination with 15,S. aureus LMG8224; 15 at 4 μM,4 ± 0 µM
same,MIC of antibiotic in combination with 17,S. aureus LMG8224; 17 at 4 μM,6.6 ± 0.9 µM
same,MIC of antibiotic in combination with RES,S. aureus LMG8224,>32 µM
same,MIC of antibiotic alone (Ab),S. aureus LMG8224,>32 µM
same,"FICI, antibiotic with 15",S. aureus LMG8224,0.31*
same,"FICI, antibiotic with 17",S. aureus LMG8224,0.41*
polymyxin B,MIC of antibiotic in combination with 15,E. faecium LMG16003 [3]; 15 at 4 μM,21.3 ± 3.7 µM
same,MIC of antibiotic in combination with 15,E. faecium LMG16003 [3]; 15 at 8 μM,1.8 ± 0.2 µM
same,MIC of antibiotic in combination with RES,E. faecium LMG16003 [3],>32 µM
same,MIC of antibiotic alone (Ab),E. faecium LMG16003 [3],>32 µM
same,"FICI, antibiotic with 15",E. faecium LMG16003 [3]; [4],0.27*
same,MIC of antibiotic in combination with 15,S. aureus LMG8224; 15 at 2 μM,8 ± 0 µM
same,MIC of antibiotic in combination with 15,S. aureus LMG8224; 15 at 4 μM,1 ± 0 µM
same,MIC of antibiotic in combination with 17,S. aureus LMG8224; 17 at 2 μM,13.3 ± 1.8 µM
same,MIC of antibiotic in combination with 17,S. aureus LMG8224; 17 at 4 μM,6.6 ± 0.9 µM
same,MIC of antibiotic in combination with RES,S. aureus LMG8224,>32 µM
same,MIC of antibiotic alone (Ab),S. aureus LMG8224,>32 µM
same,"FICI, antibiotic with 15",S. aureus LMG8224,0.25*
same,"FICI, antibiotic with 17",S. aureus LMG8224,0.45*

# Source: publication PMC9237828, “Chemically Tuning Resveratrol for the Effective Killing of Gram-Positive Pathogens” (Journal of Natural Products, 2022)
